From patent US20260209233A1, “ANNULATED PYRIDAZINE DERIVATIVE” (Tenvie Therapeutics, Inc., priority 2022, published 2026)

target: T1, NLRP3 inflammasome (Homo sapiens, UniProt Q96P20); assay: THP-1 IL-1β production inhibition test; type: cell-based; settings: PMA-treated THP-1 cells, LPS 50 ng/ml + ATP 5 mM, 2 hours, IL-1β in supernatant by ELISA
T1 construct: endogenous in cells; host or cells: THP-1 cells, PMA-differentiated and stimulated with LPS and ATP
Method: Test Example 1: THP-1 IL-1β Production Inhibition Test
PMA (phorbol myristate acetate, SIGMA, P1585) was added to THP-1 cells in an amount of 50 ng/mL to culture the cells for 2 days at 37° C. The culture medium was replaced with a serum-free RPMI-1640 medium, and a compound with a known concentration was added thereto to culture the cells at 37° C. for 15 minutes. LPS (Lipopolysaccharide, SIMGA, L2880) and ATP (Adenosine triphosphate, SIGMA, A2383) were added so that final concentrations become 50 ng/ml and 5 mM, respectively, followed by culturing at 37° C. for 2 hours. The supernatants were collected to measure the concentrations of IL-1β by ELISA (DuoSet ELISA human IL-1β, R&D Systems, DY201). The IL-1β concentrations were plotted against log concentrations of test compounds, and an IC50 value was calculated by sigmoid Emax model nonlinear regression analysis.
Example compounds were confirmed to inhibit NLRP3 inflammasome activation and IL-1β production.

T1 sequence (Q96P20 whole entry): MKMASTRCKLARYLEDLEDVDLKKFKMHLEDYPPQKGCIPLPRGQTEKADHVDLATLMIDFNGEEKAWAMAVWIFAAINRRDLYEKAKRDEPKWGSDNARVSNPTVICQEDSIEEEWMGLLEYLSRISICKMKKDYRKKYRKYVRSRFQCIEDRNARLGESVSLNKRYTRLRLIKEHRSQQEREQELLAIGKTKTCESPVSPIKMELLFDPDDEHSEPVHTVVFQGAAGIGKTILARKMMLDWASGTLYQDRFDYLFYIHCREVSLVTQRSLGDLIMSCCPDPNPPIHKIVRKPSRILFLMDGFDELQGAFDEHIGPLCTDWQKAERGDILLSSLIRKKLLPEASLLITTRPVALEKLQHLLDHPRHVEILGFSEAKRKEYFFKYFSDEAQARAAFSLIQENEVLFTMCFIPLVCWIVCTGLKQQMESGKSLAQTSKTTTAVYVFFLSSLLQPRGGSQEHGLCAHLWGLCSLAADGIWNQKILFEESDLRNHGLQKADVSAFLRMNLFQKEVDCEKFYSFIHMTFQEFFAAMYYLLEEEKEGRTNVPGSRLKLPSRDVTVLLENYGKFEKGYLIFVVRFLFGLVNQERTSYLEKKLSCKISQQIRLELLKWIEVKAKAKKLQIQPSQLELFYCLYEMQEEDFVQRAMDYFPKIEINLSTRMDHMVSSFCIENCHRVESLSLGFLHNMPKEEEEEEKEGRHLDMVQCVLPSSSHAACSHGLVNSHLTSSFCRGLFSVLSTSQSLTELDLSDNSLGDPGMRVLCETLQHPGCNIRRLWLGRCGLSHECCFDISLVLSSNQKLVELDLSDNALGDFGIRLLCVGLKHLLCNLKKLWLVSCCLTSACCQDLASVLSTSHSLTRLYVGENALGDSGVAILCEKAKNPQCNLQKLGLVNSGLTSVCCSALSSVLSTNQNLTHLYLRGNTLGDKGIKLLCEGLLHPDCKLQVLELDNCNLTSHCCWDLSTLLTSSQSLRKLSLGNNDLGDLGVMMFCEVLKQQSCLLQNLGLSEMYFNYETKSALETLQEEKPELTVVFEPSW

IC50 | SMILES
11 nM | Cc1c(-c2ccc(C(F)(F)F)cc2O)nnc2c1CN(C)CN2[C@@H]1CCCC[C@H]1O [Example 36, 2-{8-[(1R,2R)-2-hydroxycyclohexyl]-4,6-dimethyl-5,6,7,8-tetrahydropyrimido[4,5-c]pyridazin-3-yl}-5-(trifluoromethyl)phenol]
230 nM | Cc1c(-c2ccc(C(F)(F)F)cc2O)nnc2c1CNC(=O)N2[C@@H]1CCCC[C@H]1O [Example 37, 8-[(1R,2R)-2-hydroxycyclohexyl]-3-[2-hydroxy-4-(trifluoromethyl)phenyl]-4-methyl-5,8-dihydropyrimido[4,5-c]pyridazin-7 (6H)-one]
7.6 nM | Cc1c(-c2ccc(C(F)(F)F)cc2O)nnc2c1CNCCN2[C@@H]1CCCC[C@H]1O [Example 38, 2-{9-[(1R,2R)-2-hydroxycyclohexyl]-4-methyl-6,7,8,9-tetrahydro-5H-pyridazino[3,4-e][1,4]diazepin-3-yl}-5-(trifluoromethyl)phenol]
160 nM | CC(=O)O[C@@H]1CCCC[C@H]1N1CCN(C(C)=O)Cc2c1nnc(-c1ccc(C(F)(F)F)cc1O)c2C [Example 39, (1R,2R)-2-{6-acetyl-3-[2-hydroxy-4-(trifluoromethyl)phenyl]-4-methyl-5,6,7,8-tetrahydro-9H-pyridazino[3,4-e][1,4]diazepin-9-yl}cyclohexyl acetate]
190 nM | CC(=O)N1CCN([C@@H]2CCCC[C@H]2O)c2nnc(-c3ccc(C(F)(F)F)cc3O)c(C)c2C1 [Example 40, 1-{9-[(1R,2R)-2-hydroxycyclohexyl]-3-[2-hydroxy-4-(trifluoromethyl)phenyl]-4-methyl-5,7,8,9-tetrahydro-6H-pyridazino[3,4-e][1,4]diazepin-6-yl}ethan-1-one]
26 nM | CCN1CCN([C@@H]2CCCC[C@H]2O)c2nnc(-c3ccc(C(F)(F)F)cc3O)c(C)c2C1 [Example 41, 2-{6-ethyl-9-[(1R,2R)-2-hydroxycyclohexyl]-4-methyl-6,7,8,9-tetrahydro-5H-pyridazino[3,4-e][1,4]diazepin-3-yl}-5-(trifluoromethyl)phenol]
60 nM | Cc1c(-c2ccc(C(F)(F)F)cc2O)nnc2c1CN(C)[C@H](C)CN2[C@@H]1CCCC[C@H]1O [Example 42]
230 nM | Cc1c(-c2ccc(C(F)(F)F)cc2O)nnc2c1CCCN2c1cc[nH]n1 [Example 43, 2-[4-methyl-8-(1H-pyrazol-3-yl)-5,6,7,8-tetrahydropyrido[2,3-c]pyridazin-3-yl]-5-(trifluoromethyl)phenol]
30 nM | Cc1c(-c2ccc(C(F)F)cc2O)nnc2c1CN(C)CCN2[C@@H]1CCCC[C@H]1O [Example 44, 5-(difluoromethyl)-2-{9-[(1R,2R)-2-hydroxycyclohexyl]-4,6-dimethyl-6,7,8,9-tetrahydro-5H-pyridazino[3,4-e][1,4]diazepin-3-yl}phenol]
28 nM | Cc1c(-c2ccc(OC(F)F)cc2O)nnc2c1CCN2[C@H]1CCNC1=O [Example 45, (3S)-3-{3-[4-(difluoromethoxy)-2-hydroxyphenyl]-4-methyl-5,6-dihydro-7H-pyrrolo[2,3-c]pyridazin-7-yl}pyrrolidin-2-one]
